# “Also recorded” adds a separate entry of the source.
# How the values were obtained:
# [1] = system: 12-O-tetradecanoylphorbol acetate (TPA)-induced mouse ear edema; design: method as in ref 32, 33 = [32]; doi:10.1016/j.arabjc.2016.12.026; 32. Cabrera Pérez L.C. Gutiérrez Sánchez M. Mendieta Wejebe J.E. Hernández Rodríguez M. Fragoso Vázquez M.J. Salazar J.R. Correa Basurto J. Padilla Martínez I.I. Rosales Hernández M.C. Novel 5-aminosa || [33]; 33. Correa Basurto J. Rosales Hernández M.C. Mendieta Wejebe J.E. Trujillo Ferrara J.G. Padilla Martínez I.I. Ramírez Durán L.A. Alemán González Duhart D. Síntesis de un derivado del ácido 5-aminosali; conditions: cited from earlier work
# [2] = system: myeloperoxidase (MPO); design: method as in ref 32, 33 = [32]; doi:10.1016/j.arabjc.2016.12.026; 32. Cabrera Pérez L.C. Gutiérrez Sánchez M. Mendieta Wejebe J.E. Hernández Rodríguez M. Fragoso Vázquez M.J. Salazar J.R. Correa Basurto J. Padilla Martínez I.I. Rosales Hernández M.C. Novel 5-aminosa || [33]; 33. Correa Basurto J. Rosales Hernández M.C. Mendieta Wejebe J.E. Trujillo Ferrara J.G. Padilla Martínez I.I. Ramírez Durán L.A. Alemán González Duhart D. Síntesis de un derivado del ácido 5-aminosali; conditions: o-dianisidine method; cited from earlier work
# [3] = Stability of C1 in rat plasma (RP-HPLC); assay type: in vitro ADME; conditions: for Difference at 12 h (%) / Difference at 24 h (%) / Difference at 48 h (%): rat plasma
# Method: C1 was quantified in a liquid chromatograph Agilent 1260 Infinity Series (Agilent Technologies, Palo Alto, CA, USA) equipped with a quaternary pump delivery system (G1311B), robotic autosampler (G1316A), column thermostat (G1316A), and a multi-wavelength UV detector (G1315C). The results were analyzed with OpenLab CDS EZChrom. Separation was performed on a Zorbax SB-Phenyl column (5 µm, 4.6 × 150 mm, Agilent Technologies, Palo Alto, CA, USA) and UV detection was carried out at 305 nm. The column temperature was maintained at 25 °C, and the injection volume was 10 μL. The mobile phase consisted of a mixture of (A) acetonitrile, (B) methanol, and (C) water at a ratio of 50% A, 10% B, and 40% C, at a flow rate of 1.0 mL/min. The total analysis time for each sample was 5.0 min when using an isocratic elution. It was not necessary to equilibrate between each injection.
# In addition, the potential interference of heparin, ketamine, and xylazine was investigated. Method specificity was assessed by the values of peak identity and purity of C1. A peak purity angle that is less than the peak threshold angle is an indication of spectral homogeneity or purity of C1. Stability of C1 in plasma was evaluated in triplicate using the quality control samples at four concentrations. Samples were stored at 25 °C for 12, 24, and 48 h (short-term stability), and three freeze-thaw cycles at −20 to +25 °C for 12, 24, and 48 h. […] The concentration of C1 after each storage period was compared to the initial concentration, which was determined for freshly prepared samples [57, 59].
# [4] = refrigeration (4 °C), 0.1 µg/mL
# [5] = refrigeration (4 °C), 0.5 µg/mL
# [6] = refrigeration (4 °C), 100 µg/mL
# [7] = room temperature (25 °C), 0.1 µg/mL, difference to nominal concentration
# [8] = room temperature (25 °C), 0.5 µg/mL
# [9] = room temperature (25 °C), 10 µg/mL
# [10] = room temperature (25 °C), 100 µg/mL
# [11] = three freeze–thaw cycles (−20 to +25 °C), 0.1 µg/mL
# [12] = three freeze–thaw cycles (−20 to +25 °C), 0.5 µg/mL
# [13] = three freeze–thaw cycles (−20 to +25 °C), 10 µg/mL
# [14] = three freeze–thaw cycles (−20 to +25 °C), 100 µg/mL
structure (smiles),measurement,setting,value
"O=C(/C=C(/Br)C(=O)O)Nc1ccc(O)c(C(=O)O)c1 [Compound C1, 5-{[(2E)-3-bromo-3-carboxyprop-2-enoyl]amino}-2-hydroxybenzoic acid]",anti-inflammatory activity,[1],anti-inflammatory agent in mice; also recorded: comparable to that of indomethacin; also recorded: exhibited anti-inflammatory activity
same,inhibition of myeloperoxidase (MPO),[2],comparable to that of indomethacin
same,stability in rat plasma,[3]; 4 °C,up to 72 h at 4 °C
same,stability in rat plasma,[3]; 25 °C,stable in rat plasma stored up to 48 h at 25 °C
same,Difference at 12 h (%),[3]; [4],5.1%
same,Difference at 24 h (%),[3]; [4],14.0%
same,Difference at 48 h (%),[3]; [4],4.3%
same,Difference at 12 h (%),[3]; [5],4.0%
same,Difference at 24 h (%),[3]; [5],3.6%
same,Difference at 48 h (%),[3]; [5],5.3%
same,Difference at 12 h (%),"[3]; refrigeration (4 °C), 10 µg/mL",10.1%
same,Difference at 24 h (%),"[3]; refrigeration (4 °C), 10 µg/mL",13.1%
same,Difference at 48 h (%),"[3]; refrigeration (4 °C), 10 µg/mL",9.3%
same,Difference at 12 h (%),[3]; [6],1.2%
same,Difference at 24 h (%),[3]; [6],0.2%
same,Difference at 48 h (%),[3]; [6],5.2%
same,Difference at 12 h (%),[3]; [7],10.7%
same,Difference at 24 h (%),[3]; [7],3.2%
same,Difference at 48 h (%),[3]; [7],3.8%
same,Difference at 12 h (%),[3]; [8],3.2%
same,Difference at 24 h (%),[3]; [8],7.8%
same,Difference at 48 h (%),[3]; [8],4.1%
same,Difference at 12 h (%),[3]; [9],9.5%
same,Difference at 24 h (%),[3]; [9],6.5%
same,Difference at 48 h (%),[3]; [9],3.7%
same,Difference at 12 h (%),[3]; [10],0.5%
same,Difference at 24 h (%),[3]; [10],6.5%
same,Difference at 48 h (%),[3]; [10],5.4%
same,Difference at 12 h (%),[3]; [11],5.1%
same,Difference at 24 h (%),[3]; [11],1.76%
same,Difference at 48 h (%),[3]; [11],3.4%
same,Difference at 12 h (%),[3]; [12],0.1%
same,Difference at 24 h (%),[3]; [12],0.3%
same,Difference at 48 h (%),[3]; [12],1.0%
same,Difference at 12 h (%),[3]; [13],0.7%
same,Difference at 24 h (%),[3]; [13],1.2%
same,Difference at 48 h (%),[3]; [13],3.2%
same,Difference at 12 h (%),[3]; [14],0.1%
same,Difference at 24 h (%),[3]; [14],0.6%
same,Difference at 48 h (%),[3]; [14],2.0%
same,stability in rat plasma,[3]; three freeze–thaw cycles,stable before the three freeze–thaw cycles
